Experimental data: patent US20100298141A1, “SUBSTITUTED PYRIDINE N-OXIDE HERBICIDES” (E. I. DU PONT DE NEMOURS AND COMPANY, priority 2007, published 2010)

Assays:
giant foxtail = assay: Test A pre-/postemergence greenhouse test; type: in vivo, Setaria faberi; settings: for Plant response rating, Foxtail, Giant: 0 to 100 scale where 0 is no effect and 100 is complete control; for Foxtail, Giant plant response rating: 0 to 100 scale
How it was run: (§1)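 Pots of loam–sand soil sown with the test species are sprayed preemergence on the soil surface; emerged seedlings (1–2 leaves, 2–10 cm) are sprayed postemergence at the same time. The vehicle is a non-phytotoxic solvent mixture with surfactant. Injury is scored visually after ~10 d in greenhouse.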

rice = assay: Test C flooded paddy test; type: in vivo, Oryza sativa; settings: Flood
How it was run: (§2)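 Flooded 3 cm over soil; compound into paddy water; depth kept constant. Greenhouse 13–15 d.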

barnyardgrass [1] = assay: Test C flooded paddy test; type: in vivo, Echinochloa crus-galli; settings: Flood
How it was run: as §2

corn = assay: Test A pre-/postemergence greenhouse test; type: in vivo, Zea mays; settings: for Plant response rating, Corn: 0 to 100 scale where 0 is no effect and 100 is complete control; for Corn plant response rating: 0 to 100 scale
How it was run: as §1

redroot pigweed = assay: Test A pre-/postemergence greenhouse test; type: in vivo, Amaranthus retroflexus; settings: for Plant response rating, Pigweed: 0 to 100 scale where 0 is no effect and 100 is complete control; for Pigweed plant response rating: 0 to 100 scale
How it was run: as §1

duck salad = assay: Test C flooded paddy test; type: in vivo, Heteranthera limosa; settings: Flood
How it was run: as §2

barnyardgrass [2] = assay: Test A pre-/postemergence greenhouse test; type: in vivo, Echinochloa crus-galli; settings: for Plant response rating, Barnyardgrass: 0 to 100 scale where 0 is no effect and 100 is complete control; for Barnyardgrass plant response rating: 0 to 100 scale
How it was run: as §1

umbrella sedge = assay: Test C flooded paddy test; type: in vivo, Cyperus difformis; settings: Flood
How it was run: as §2

morningglory = assay: Test A pre-/postemergence greenhouse test; type: in vivo, Ipomoea spp.; settings: for Plant response rating, Morningglory: 0 to 100 scale where 0 is no effect and 100 is complete control; for Morningglory plant response rating: 0 to 100 scale
How it was run: as §1

crabgrass = assay: Test A pre-/postemergence greenhouse test; type: in vivo, Digitaria sanguinalis; settings: for Plant response rating, Crabgrass, Large: 0 to 100 scale where 0 is no effect and 100 is complete control; for Crabgrass, Large plant response rating: 0 to 100 scale
How it was run: as §1

wheat = assay: Test A pre-/postemergence greenhouse test; type: in vivo, Triticum aestivum; settings: for Plant response rating, Wheat: 0 to 100 scale where 0 is no effect and 100 is complete control; for Wheat plant response rating: 0 to 100 scale
How it was run: as §1

velvetleaf = assay: Test A pre-/postemergence greenhouse test; type: in vivo, Abutilon theophrasti; settings: for Plant response rating, Velvetleaf: 0 to 100 scale where 0 is no effect and 100 is complete control; for Velvetleaf plant response rating: 0 to 100 scale
How it was run: as §1

[3] = Postemergence, 500 g ai/ha, 0 is no effect, 100 is complete control
[4] = Preemergence, 125 g ai/ha, 0 no effect, 100 complete control
[5] = 62 g ai/ha, scale 0 to 100 (0 no effect, 100 complete control)
[6] = 250 g ai/ha, scale 0 to 100, 0 no effect, 100 complete control, 13 to 15 days
[7] = Preemergence, 500 g ai/ha, 0 no effect, 100 complete control

Structure (SMILES) | Plant response rating, Foxtail, Giant (giant foxtail; Postemergence, 125 g ai/ha) | Foxtail, Giant plant response rating (giant foxtail; [3]) | Foxtail, Giant plant response rating (giant foxtail; [4]) | Plant response rating, Foxtail, Giant (giant foxtail; Preemergence, 500 g ai/ha) | Plant response rating, Rice (rice; [5]) | Plant response rating, Rice (rice; [6]) | Plant response rating, Barnyardgrass (barnyardgrass [1]; [5]) | Plant response rating, Barnyardgrass (barnyardgrass [1]; [6]) | Plant response rating, Corn (corn; Postemergence, 125 g ai/ha) | Corn plant response rating (corn; [3]) | Corn plant response rating (corn; [4]) | Plant response rating, Corn (corn; Preemergence, 500 g ai/ha) | Plant response rating, Pigweed (redroot pigweed; Postemergence, 125 g ai/ha) | Pigweed plant response rating (redroot pigweed; [3]) | Pigweed plant response rating (redroot pigweed; [4]) | Plant response rating, Pigweed (redroot pigweed; Preemergence, 500 g ai/ha) | Plant response rating, Ducksalad (duck salad; [5]) | Plant response rating, Ducksalad (duck salad; [6]) | Plant response rating, Barnyardgrass (barnyardgrass [2]; Postemergence, 125 g ai/ha) | Barnyardgrass plant response rating (barnyardgrass [2]; [3]) | also measured
Cn1nc(C(F)(F)F)c(CS(=O)(=O)c2cccc[n+]2[O-])c1OCC(F)(F)C(F)(F)F [Compound 83] | 70 | 80 | 80 | 100 | 20 | 20 | 0 | 0 | 0 | 0 | 0 | 40 | 10 | 20 | 10 | 100 | 0 | 0 | 50 | 70 | Barnyardgrass plant response rating (barnyardgrass [2]; [4]): 80; Plant response rating, Barnyardgrass (barnyardgrass [2]; Preemergence, 500 g ai/ha): 100; Plant response rating, Sedge, Umbrella (umbrella sedge; [5]): 0; Plant response rating, Sedge, Umbrella (umbrella sedge; [6]): 0; Plant response rating, Morningglory (morningglory; Postemergence, 125 g ai/ha): 10; Morningglory plant response rating (morningglory; [3]): 30; Morningglory plant response rating (morningglory; [4]): 0; Plant response rating, Morningglory (morningglory; Preemergence, 500 g ai/ha): 70; Plant response rating, Crabgrass, Large (crabgrass; Postemergence, 125 g ai/ha): 30; Crabgrass, Large plant response rating (crabgrass; [3]): 80; Crabgrass, Large plant response rating (crabgrass; [4]): 50; Plant response rating, Crabgrass, Large (crabgrass; Preemergence, 500 g ai/ha): 80; Plant response rating, Wheat (wheat; Postemergence, 125 g ai/ha): 0; Wheat plant response rating (wheat; [3]): 10; Wheat plant response rating (wheat; [4]): 10; Plant response rating, Wheat (wheat; Preemergence, 500 g ai/ha): 60; Plant response rating, Velvetleaf (velvetleaf; Postemergence, 125 g ai/ha): 0; Velvetleaf plant response rating (velvetleaf; [3]): 40; Velvetleaf plant response rating (velvetleaf; [4]): 0; Plant response rating, Velvetleaf (velvetleaf; Preemergence, 500 g ai/ha): 60
Cn1nc(C(F)(F)C(F)(F)F)c(CS(=O)(=O)c2cccc[n+]2[O-])c1OCC(F)(F)F [Compound 84] | 70 | 80 | 80 | 100 | 30 | 65 | 15 | 60 | 0 | 40 | 0 | 30 | 40 | 70 | 60 | 100 | 75 | 85 | 70 | 80 | Barnyardgrass plant response rating (barnyardgrass [2]; [4]): 90; Plant response rating, Barnyardgrass (barnyardgrass [2]; Preemergence, 500 g ai/ha): 100; Plant response rating, Sedge, Umbrella (umbrella sedge; [5]): 75; Plant response rating, Sedge, Umbrella (umbrella sedge; [6]): 100; Plant response rating, Morningglory (morningglory; Postemergence, 125 g ai/ha): 20; Morningglory plant response rating (morningglory; [3]): 70; Morningglory plant response rating (morningglory; [4]): 70; Plant response rating, Morningglory (morningglory; Preemergence, 500 g ai/ha): 90; Plant response rating, Crabgrass, Large (crabgrass; Postemergence, 125 g ai/ha): 70; Crabgrass, Large plant response rating (crabgrass; [3]): 80; Crabgrass, Large plant response rating (crabgrass; [4]): 60; Plant response rating, Crabgrass, Large (crabgrass; Preemergence, 500 g ai/ha): 90; Plant response rating, Wheat (wheat; Postemergence, 125 g ai/ha): 30; Wheat plant response rating (wheat; [3]): 60; Wheat plant response rating (wheat; [4]): 40; Plant response rating, Wheat (wheat; Preemergence, 500 g ai/ha): 100; Plant response rating, Velvetleaf (velvetleaf; Postemergence, 125 g ai/ha): 20; Velvetleaf plant response rating (velvetleaf; [3]): 70; Velvetleaf plant response rating (velvetleaf; [4]): 70; Plant response rating, Velvetleaf (velvetleaf; Preemergence, 500 g ai/ha): 100
Cc1cc[n+]([O-])c([S+]([O-])Cc2c(C(F)(F)F)nn(C)c2OCC(F)F)c1 (stereo not drawn) [Compound 86] | 80 | 90 | 90 | 100 | 0 | 0 | 0 | 0 | 0 | 80 | 20 | 50 | 60 | 90 | 90 | 100 | 65 | 100 | 70 | 90 | Barnyardgrass plant response rating (barnyardgrass [2]; [4]): 70; Plant response rating, Barnyardgrass (barnyardgrass [2]; Preemergence, 500 g ai/ha): 100; Plant response rating, Sedge, Umbrella (umbrella sedge; [5]): 45; Plant response rating, Sedge, Umbrella (umbrella sedge; [6]): 95; Plant response rating, Morningglory (morningglory; Postemergence, 125 g ai/ha): 60; Morningglory plant response rating (morningglory; [3]): 90; Morningglory plant response rating (morningglory; [4]): 50; Plant response rating, Morningglory (morningglory; Preemergence, 500 g ai/ha): 90; Plant response rating, Crabgrass, Large (crabgrass; Postemergence, 125 g ai/ha): 50; Crabgrass, Large plant response rating (crabgrass; [3]): 90; Crabgrass, Large plant response rating (crabgrass; [4]): 70; Plant response rating, Crabgrass, Large (crabgrass; Preemergence, 500 g ai/ha): 100; Plant response rating, Wheat (wheat; Postemergence, 125 g ai/ha): 50; Wheat plant response rating (wheat; [3]): 70; Wheat plant response rating (wheat; [4]): 70; Wheat plant response rating (wheat; [7]): 90; Plant response rating, Velvetleaf (velvetleaf; Postemergence, 125 g ai/ha): 50; Velvetleaf plant response rating (velvetleaf; [3]): 70; Velvetleaf plant response rating (velvetleaf; [4]): 10; Velvetleaf plant response rating (velvetleaf; [7]): 80
